The target of data set [1] is T1, Motilin receptor (Homo sapiens, UniProt O43193). Kind of data set: Agonist activity at human GPR38 expressed in COS-7 cells. Format: functional, cell-based.
The nature of data set [2]: Agonist activity at rabbit GPR38 expressed in COS-7 cells. It counts as cell-based. To be noted: Oryctolagus cuniculus.
Data set [3] deals with T2, CYP3A4 (Homo sapiens, UniProt P08684). Kind of data set: Inhibition of CYP3A4 in human liver microsomes assessed as remaining activity. It counts as ADME, Microsome. On the set-up: concentration or dose not given beside the values. In general terms: Liver microsomes are a subcellular fraction often used to study metabolism.
Data set [4] can be described thus: Lipophilicity, logD of the compound at pH 7.4. To be noted: buffer.
A short description of data set [5]: Ex vivo agonist activity at GPR38 in rabbit duodenum muscle tissue assessed as intestinal contractile activity. It counts as tissue-based, Oryctolagus cuniculus.
Data set [6] concerns the target T1, Motilin receptor. Kind of data set: Potency index, ratio of GSK962040 EC50 to test compound EC50 for human GPR38 expressed in COS-7 cells. Format: functional, cell-based.
Data set [7] can be described thus: Effective permeability of the compound at pH 5 by PAMPA assay. Format: ADME. To be noted: read-out: Peff. On the technique in general: The PAMPA barrier holds no transporters, so it reflects passive diffusion.
Data set [8] can be described thus: Protein binding in human. It counts as ADME. To be noted: read-out: PB (converted).
For the next data set, the species on record is Oryctolagus cuniculus. Kind of data set: Potency index, ratio of GSK962040 EC50 to test compound EC50 for Ex vivo agonist activity at GPR38 in rabbit duodenum muscle tissue. It counts as tissue-based.
A short description of data set [9]: Protein binding in rabbit. Format: ADME, Oryctolagus cuniculus. To be noted: read-out: PB (converted).
The target of another data set is CYP2C9 (Homo sapiens, UniProt P11712). Kind of data set: Inhibition of CYP2C9 (unknown origin) at 10 uM. Format: ADME.
The nature of data set [10]: Effective permeability of the compound at pH 7.4 by PAMPA assay. It counts as ADME. To be noted: read-out: Peff.
For the next data set, the target named is T3, CYP1A2 (Homo sapiens, UniProt P05177).
T3 sequence (P05177 whole entry): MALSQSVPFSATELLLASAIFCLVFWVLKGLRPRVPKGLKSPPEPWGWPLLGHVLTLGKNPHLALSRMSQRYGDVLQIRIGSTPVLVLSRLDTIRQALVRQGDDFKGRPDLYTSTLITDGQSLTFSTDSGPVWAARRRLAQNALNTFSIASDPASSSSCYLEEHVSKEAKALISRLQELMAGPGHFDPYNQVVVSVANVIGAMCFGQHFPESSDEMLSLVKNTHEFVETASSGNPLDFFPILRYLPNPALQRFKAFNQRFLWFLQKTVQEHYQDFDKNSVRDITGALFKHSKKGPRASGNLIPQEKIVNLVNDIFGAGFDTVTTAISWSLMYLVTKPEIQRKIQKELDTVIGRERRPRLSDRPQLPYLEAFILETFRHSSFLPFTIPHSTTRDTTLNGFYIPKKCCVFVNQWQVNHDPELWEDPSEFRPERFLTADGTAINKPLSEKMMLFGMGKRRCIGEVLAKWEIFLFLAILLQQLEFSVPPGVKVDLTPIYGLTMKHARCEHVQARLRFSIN
Kind of data set: Inhibition of CYP1A2 (unknown origin) at 10 uM. Format: ADME.

The target of a further data set is CYP2D6 (Homo sapiens, UniProt P10635). In words: Inhibition of CYP2D6 (unknown origin) at 10 uM. Format: ADME.
Data set [11] concerns the target T2, CYP3A4. In words: Inhibition of CYP3A4 (unknown origin) at 10 uM. Format: ADME.

T2 sequence (P08684 whole entry): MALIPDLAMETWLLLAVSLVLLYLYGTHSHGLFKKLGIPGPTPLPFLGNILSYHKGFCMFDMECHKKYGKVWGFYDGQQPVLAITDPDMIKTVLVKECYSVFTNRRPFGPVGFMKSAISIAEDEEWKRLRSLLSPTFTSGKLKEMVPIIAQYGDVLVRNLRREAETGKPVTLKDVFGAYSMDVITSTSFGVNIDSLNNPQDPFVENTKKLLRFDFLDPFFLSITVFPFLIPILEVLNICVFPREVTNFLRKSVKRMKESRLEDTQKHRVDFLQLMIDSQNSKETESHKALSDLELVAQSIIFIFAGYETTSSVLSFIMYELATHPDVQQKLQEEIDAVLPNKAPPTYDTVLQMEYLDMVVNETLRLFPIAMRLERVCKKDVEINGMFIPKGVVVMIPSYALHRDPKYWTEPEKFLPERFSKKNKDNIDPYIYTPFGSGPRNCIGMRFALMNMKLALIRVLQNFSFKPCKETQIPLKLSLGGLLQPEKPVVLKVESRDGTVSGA
T1 sequence (O43193 whole entry): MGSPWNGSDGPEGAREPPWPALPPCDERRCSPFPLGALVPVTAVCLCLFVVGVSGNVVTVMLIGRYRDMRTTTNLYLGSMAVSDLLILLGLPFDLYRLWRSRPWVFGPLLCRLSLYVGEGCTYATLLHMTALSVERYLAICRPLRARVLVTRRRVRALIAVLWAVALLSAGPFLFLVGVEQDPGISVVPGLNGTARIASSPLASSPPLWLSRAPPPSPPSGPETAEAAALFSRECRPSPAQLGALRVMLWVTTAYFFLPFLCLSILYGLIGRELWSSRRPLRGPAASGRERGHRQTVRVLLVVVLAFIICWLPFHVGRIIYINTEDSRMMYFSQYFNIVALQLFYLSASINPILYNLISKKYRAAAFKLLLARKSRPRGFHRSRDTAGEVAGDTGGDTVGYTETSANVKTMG
Chain of CYP2C9 (P11712 whole entry): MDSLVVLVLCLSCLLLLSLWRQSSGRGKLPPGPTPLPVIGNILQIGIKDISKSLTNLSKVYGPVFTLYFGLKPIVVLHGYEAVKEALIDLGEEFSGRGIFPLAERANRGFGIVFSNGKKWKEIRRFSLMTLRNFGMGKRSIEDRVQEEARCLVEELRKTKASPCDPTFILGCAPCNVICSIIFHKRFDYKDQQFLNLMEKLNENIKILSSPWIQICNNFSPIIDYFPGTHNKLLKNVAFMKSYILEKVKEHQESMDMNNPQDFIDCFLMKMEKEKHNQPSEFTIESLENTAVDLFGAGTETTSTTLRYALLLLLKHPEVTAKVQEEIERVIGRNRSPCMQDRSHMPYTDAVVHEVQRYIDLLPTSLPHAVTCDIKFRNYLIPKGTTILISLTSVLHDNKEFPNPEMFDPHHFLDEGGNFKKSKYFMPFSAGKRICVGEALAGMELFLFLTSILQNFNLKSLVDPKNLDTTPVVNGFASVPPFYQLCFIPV
Chain of CYP2D6 (P10635 whole entry): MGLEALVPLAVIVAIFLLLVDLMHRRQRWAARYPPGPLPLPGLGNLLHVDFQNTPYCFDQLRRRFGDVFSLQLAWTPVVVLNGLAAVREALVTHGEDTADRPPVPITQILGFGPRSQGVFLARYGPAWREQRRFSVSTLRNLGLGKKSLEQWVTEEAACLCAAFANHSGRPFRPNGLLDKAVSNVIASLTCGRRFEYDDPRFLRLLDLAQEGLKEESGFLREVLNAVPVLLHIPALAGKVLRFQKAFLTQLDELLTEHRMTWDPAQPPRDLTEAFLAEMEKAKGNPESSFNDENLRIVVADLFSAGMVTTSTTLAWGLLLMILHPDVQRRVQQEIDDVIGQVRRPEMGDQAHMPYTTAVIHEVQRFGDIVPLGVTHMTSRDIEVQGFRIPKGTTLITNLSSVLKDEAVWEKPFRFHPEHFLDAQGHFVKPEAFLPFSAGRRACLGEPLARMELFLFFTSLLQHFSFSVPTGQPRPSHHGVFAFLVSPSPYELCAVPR

In the case of `C[C@H]1CN(Cc2ccc(-c3cccnc3N3CCC(Nc4cccc(F)c4)CC3)cc2)CCN1`, the figures for the EC50 (on Motilin receptor [1]; in data set [2]) were 18 nM and 1.7 nM, respectively.

Turning to `CCOCc1cccc(N[C@H]2CC[C@H](C(=O)N(C)c3ccc(CN4CCN[C@@H](C)C4)c(C)c3)CC2)c1`, the activity on CYP3A4 [3] was 61%. Also, the log distribution coefficient (logD) (in general, lipophilicity at a set pH, counting ionised and neutral species) in [4] stood at 2.5. The EC50 (usually the concentration needed to bring the measured effect to its halfway point) at Motilin receptor [1] was 2.6 nM.

As to `Cc1cc(N(C)C(=O)[C@H]2CC[C@H](Oc3ccc(F)cn3)CC2)ccc1CN1CCN[C@@H](C)C1`, the activity on CYP3A4 [3] was determined as 47%. The logD in data set [4] was 1.9. The values for the concentration giving a half-maximal response (EC50) (on Motilin receptor [1]; in data set [2]) were 4.6 nM and 0.26 nM, respectively.

In the case of `Cc1cc(N(C)C(=O)[C@H]2CC[C@H](Oc3ccc(F)c(CO)c3)CC2)ccc1CN1CCN[C@@H](C)C1`, the activity at CYP3A4 [3] turned out to be 54%. The compound further displayed a logD in [4] of 1.6. Besides, the EC50 worked out at 7.5 nM on Motilin receptor [1] and 0.62 nM in data set [2].

For `Cc1cc(N(C)C(=O)[C@H]2CC[C@H](Oc3ccc(Cl)c(CO)c3)CC2)ccc1CN1CCN[C@@H](C)C1`, the activity at CYP3A4 [3] turned out to be 56%. Besides, the EC50 on Motilin receptor [1] was determined as 1.8 nM; in data set [2] it was 0.13 nM.

As for `Cc1cc(N(C)C(=O)[C@H]2CC[C@H](Oc3cc(CO)ccc3C)CC2)ccc1CN1CCN[C@@H](C)C1`, the activity at CYP3A4 [3] was 54%. In addition, the EC50 on Motilin receptor [1] was found to be 5.6 nM; in data set [2], 1 nM.

With `Cc1cc(N(C)C(=O)[C@H]2CC[C@H](Oc3cccc(CCO)c3)CC2)ccc1CN1CCN[C@@H](C)C1`, on CYP3A4 [3], the activity amounted to 60%. In [4], this compound returned a log distribution coefficient (logD) of 1.3. In addition, the concentration for a half-maximal effect (EC50) on Motilin receptor [1] amounted to 4.7 nM; in [2] it was 0.51 nM.

With `CC[C@H]1CN(Cc2ccc(N(C)C(=O)[C@H]3CC[C@H](Oc4ccc(F)cc4)CC3)cc2C)CCN1`, the activity at CYP3A4 [3] stood at 29%. Further, the EC50 at Motilin receptor [1] turned out to be 350 nM.

In the case of `C[C@H]1CN(Cc2ccc(NC(=O)[C@H]3CC[C@H](Oc4ccc(F)cc4)CC3)cc2)CCN1`, the EC50 (at Motilin receptor [1]; in data set [2]) was greater than 10000 nM in each case.

`CC[C@H]1CN(Cc2ccc(N(C)C(=O)[C@H]3CC[C@H](Oc4ccnc(C#N)c4)CC3)cc2C)CCN1`: the EC50 in data set [5] came to 4.8 nM; on Motilin receptor [1] it was 11 nM; in [2], 1.2 nM. The activity on CYP3A4 [3] was 68%. Besides, the logD in [4] worked out at 1.

Consider `C[C@H]1CN(Cc2ccc(N(C)C(=O)[C@H]3CC[C@H](Oc4ccc(F)cc4)CC3)cc2)CCN1`, for which the concentration for a half-maximal effect (EC50) came to 28 nM in data set [5], 55 nM at Motilin receptor [1] and 2.6 nM in [2]. Moreover, the activity at CYP3A4 [3] was found to be 44%.

As to `Cc1cc(CN2CCN[C@@H](C)C2)ccc1N(C)C(=O)[C@H]1CC[C@H](Oc2ccc(F)cc2)CC1`, the activity on CYP3A4 [3] was 40%. On Motilin receptor [1], this compound displayed an EC50 of 240 nM.

In the case of `C[C@@H]1CN(Cc2ccc(-c3cccnc3C(=O)N3CCC(Cc4ccc(F)cc4)CC3)cc2)C[C@H](C)N1`, the concentration giving a half-maximal response (EC50) on Motilin receptor [1] worked out at 51 nM; in data set [2] it was 3.8 nM. Besides, at Motilin receptor [6], the Ratio EC50 was found to be 20.

In the case of `Cc1cc(N(C)C(=O)[C@H]2CC[C@H](Oc3cccc(CC(C)(C)O)c3)CC2)ccc1CN1CCN[C@@H](C)C1`, the activity at CYP3A4 [3] stood at 50%. Moreover, the logD in data set [4] turned out to be 2. For the same compound, the half-maximal effective concentration (EC50) at Motilin receptor [1] came to 4.3 nM; in [2], 1.1 nM.

On to `Cc1cc(N(C)C(=O)[C@H]2CC[C@H](Oc3cccc(CO)c3)CC2)ccc1CN1CCN[C@@H](C)C1`, for which the EC50 was 7.3 nM in data set [5], 5.3 nM on Motilin receptor [1] and 1.3 nM in data set [2]. For the same compound, the Papp in data set [7] came to 1.5 ×10⁻⁶ cm/s; in [10], 48 ×10⁻⁶ cm/s. Also, on CYP3A4 [3], the activity was found to be 74%. The fraction unbound is 0.228 in [8] and 0.335 in data set [9]. In addition, the Ratio EC50 in the data set filed under Oryctolagus cuniculus came out at 11. For the same compound, the logD in data set [4] is 1.3. The inhibition – broadly, the change of the read-out against control, counted positive when it falls – at 10 µM against CYP2C9 stood at 5.3%; on CYP1A2, 13%; against CYP2D6, 8.8%; against CYP3A4 [11], 3.1%.

Turning to `Cc1cc(N(C)C(=O)[C@H]2CC[C@H](Oc3ccc(F)cc3)CC2)ccc1CN1CCN[C@@H](C)C1`, on CYP3A4 [3], the activity worked out at 32%. Moreover, the pH-dependent lipophilicity (logD) in data set [4] came out at 2.5. Besides, the concentration for a half-maximal effect (EC50) is 2.1 nM on Motilin receptor [1] and 0.21 nM in [2].

As to `C[C@H]1CN(Cc2ccc(CC(=O)N3CCC(Nc4cccc(F)c4)CC3)cc2)CCN1` [CAMICINAL], the EC50 is 82.6 nM in [5], 970 nM at Motilin receptor [1] and 42 nM in data set [2].

In the case of `C[C@H]1CN(Cc2ccc(N(C)C(=O)[C@H]3CC[C@H](Oc4ccc(F)cc4)CC3)cc2Cl)CCN1`, at CYP3A4 [3], the activity came out at 23%. Further, the concentration giving a half-maximal response (EC50) stood at 2 nM at Motilin receptor [1] and 0.18 nM in data set [2].

For the compound `CC[C@H](C)[C@H](NC(=O)[C@@H]1CCCN1C(=O)[C@@H](NC(=O)[C@@H](N)Cc1ccccc1)C(C)C)C(=O)N[C@@H](Cc1ccccc1)C(=O)N[C@H](C(=O)N[C@@H](Cc1ccc(O)cc1)C(=O)NCC(=O)N[C@@H](CCC(=O)O)C(=O)N[C@@H](CC(C)C)C(=O)N[C@@H](CCC(N)=O)C(=O)N[C@@H](CCCNC(=N)N)C(=O)N[C@@H](CCSC)C(=O)N[C@@H](CCC(N)=O)C(=O)N[C@@H](CCC(=O)O)C(=O)N[C@@H](CCCCN)C(=O)N[C@@H](CCC(=O)O)C(=O)N[C@@H](CCCNC(=N)N)C(=O)N[C@@H](CC(N)=O)C(=O)N[C@@H](CCCCN)C(=O)NCC(=O)N[C@@H](CCC(N)=O)C(=O)O)[C@@H](C)O`, the EC50 stood at 0.23 nM in [5], 0.97 nM at Motilin receptor [1] and 0.16 nM in data set [2].

Take `Cc1cc(N(C)C(=O)[C@H]2CC[C@H](Oc3ccc(F)cc3)CC2)ccc1CN1CCNCC1`: the activity on CYP3A4 [3] came to 82%. In addition, the EC50 on Motilin receptor [1] was found to be 46 nM; in data set [2], 1.3 nM.

Consider `Cc1cc(N(C)C(=O)[C@H]2CC[C@H](Oc3cccc(CC(=O)NC(C)C)c3)CC2)ccc1CN1CCN[C@@H](C)C1`, for which the activity at CYP3A4 [3] turned out to be 68%. The same compound showed a pH-dependent lipophilicity (logD) in [4] of 1.8. The EC50 was 1.6 nM on Motilin receptor [1] and 0.26 nM in data set [2].

Regarding `Cc1cc(N(C)C(=O)[C@H]2CC[C@H](Oc3cccc(C(=O)O)c3)CC2)ccc1CN1CCN[C@@H](C)C1`, the activity at CYP3A4 [3] is 101%. Also, the logD in data set [4] was -0.4. In addition, the concentration giving a half-maximal response (EC50) on Motilin receptor [1] was greater than 10000 nM; in data set [2] it was 1300 nM.

The values are drawn from ChEMBL document CHEMBL5143563, “Discovery of DS-3801b, a non-macrolide GPR38 agonist with N-methylanilide structure” (Bioorg Med Chem Lett, 2022).
